Laboratory results taken from patent US7495147B2, “Neuregulin-1 transgenic mouse and methods of use” (deCODE genetics ehf., priority 2000, dated 2009).

Test system: NRG1TM hypomorphic mice
Test: open field test of locomotor activity in NRG1TM hypomorphic mice and litter-mate controls
Type: in vivo, mouse
Details: litter-mate control (wild-type) mice; clozapine 1 mg/kg i.p. 25 min prior to testing
Experimental: Male NRG1TM hypomorphs, ErbB4 hypomorphs and litter-mate controls for each line were bred at Charles River Laboratories USA by crossing to a C57B16 background. They were shipped to the testing laboratory at PsychoGenics Inc. NY, USA (six weeks prior to behavioral testing) where they were housed in groups of 3-5 related mice per cage. The open field study was conducted when the male mice were 5 to 6 months of age. Group housed mice were brought into the experimental room and allowed to acclimate for one hour prior to testing. Each mouse was placed for 30 minutes in a square open field box (17×17×12 inch). Up to eight animals were tested at one time, one animal in each of eight arenas, under low lighting conditions (provided by a 15 watt red lamp). The automated infrared beam array system measured locomotion in the center and periphery of the test arena. Activity data were collected in 5 min intervals over the 30 min open field session and analyzed with a series of repeated measures analysis of variance (ANOVA) with session interval as a within-subject factor and genotype as a between-subject factor. Clozapine (1 mg/kg in 1% Tween 20, pH 6.0) was injected intraperitoneally (i.p.) 25 min before behavioral testing. Total activity data from the study with clozapine were analyzed with a two-tailed, Student's t-test. Naïve mice were used for these experiments. […]

For CN1CCN(C2=Nc3cc(Cl)ccc3Nc3ccccc32)CC1 [Clozapine, clozapine], the “open field activity of litter-mate control mice” value was “no effect”.
